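Cells were grown in 96-well plates and exposed to each compound for 48 hours at five concentrations; endpoints were interpolated linearly between bracketing concentrations, or set to the highest concentration if not reached. GI50 marks 50% less growth.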 Calls of active or inactive are those of the source. Cut-off read from the data, not from the text of the source: active = GI50 up to about 1.1 µM and inactive = higher.
How the values were obtained:
Assay in all cases: DTP human tumour cell line panel, 48 h
HOP-92 = test system: HOP-92
OVCAR-4 = test system: OVCAR-4
SF-295 = test system: SF-295
CCRF-CEM = test system: CCRF-CEM
K562 = test system: K562
UO-31 = test system: UO-31
DU-145 = test system: DU-145
MCF7 = test system: MCF7
A498 = test system: A498
HOP-62 = test system: HOP-62
NCI-H226 = test system: NCI-H226
SNB-19 = test system: SNB-19
COLO 205 = test system: COLO 205
786-0 = test system: 786-0
MOLT-4 = test system: MOLT-4
HCT-15 = test system: HCT-15
SK-OV-3 = test system: SK-OV-3
SW-620 = test system: SW-620
UACC-257 = test system: UACC-257
RXF 393 = test system: RXF 393

SMILES	GI50 (HOP-92)	GI50 (OVCAR-4)	GI50 (SF-295)	GI50 (CCRF-CEM)	GI50 (K562)	GI50 (UO-31)	GI50 (DU-145)	GI50 (MCF7)	GI50 (A498)	GI50 (HOP-62)	GI50 (NCI-H226)	GI50 (SNB-19)	GI50 (COLO 205)	GI50 (786-0)	GI50 (MOLT-4)	GI50 (HCT-15)	GI50 (SK-OV-3)	GI50 (SW-620)	GI50 (UACC-257)	GI50 (RXF 393)
CC(C)=CCC[C@](C)(O[C@@H]1O[C@H](CO)[C@@H](O)[C@H](O)[C@H]1O)[C@H]1CC[C@]2(C)[C@@H]1[C@H](O)C[C@@H]1[C@@]3(C)CC[C@H](O)C(C)(C)[C@@H]3[C@@H](O[C@@H]3O[C@H](CO)[C@@H](O)[C@H](O)[C@H]3O[C@@H]3O[C@@H](C)[C@H](O)[C@@H](O)[C@H]3O)C[C@]12C.CC(C)=CCC[C@](C)(O[C@@H]1O[C@H](CO)[C@@H](O)[C@H](O)[C@H]1O)[C@H]1CC[C@]2(C)[C@@H]1[C@H](O)C[C@@H]1[C@@]3(C)CC[C@H](O)C(C)(C)[C@@H]3[C@@H](O[C@@H]3O[C@H](CO)[C@@H](O)[C@H](O)[C@H]3O[C@@H]3O[C@H](CO)[C@@H](O)[C@H](O)[C@H]3O)C[C@]12C	> 75 µM (inactive)	> 75 µM (inactive)	60.3 µM (inactive)	> 75 µM (inactive)	> 75 µM (inactive)	> 75 µM (inactive)	> 75 µM (inactive)	> 75 µM (inactive)	> 75 µM (inactive)	22.9 µM (inactive)	> 75 µM (inactive)	> 75 µM (inactive)	> 75 µM (inactive)	> 75 µM (inactive)	> 75 µM (inactive)	> 75 µM	> 75 µM (inactive)	> 75 µM (inactive)	> 75 µM (inactive)	
C#C[C@]1(O)[C@@H](CO)O[C@@H](n2ccc(N)nc2=O)[C@@H]1O	0.11 µM (active)	0.18 µM (active)	< 0.0334 µM (active)	< 0.0109 µM (active)	< 0.01 µM (active)	0.0119 µM (active)	< 0.01 µM (active)	< 0.01 µM (active)			0.0308 µM (active)	0.0706 µM (active)	< 0.0111 µM (active)	< 0.0325 µM (active)	0.0101 µM (active)	< 0.01 µM	0.0791 µM (active)	< 0.01 µM (active)	0.111 µM (active)	0.0581 µM (active)
CCC(=O)n1c(=O)n(-c2ccc([N+](=O)[O-])cc2)c(=O)n1C(=O)CC		> 100 µM (inactive)	> 100 µM (inactive)	> 100 µM (inactive)	> 100 µM (inactive)	> 100 µM (inactive)	> 100 µM (inactive)	> 100 µM (inactive)		> 100 µM (inactive)	> 100 µM (inactive)	> 100 µM (inactive)	> 100 µM (inactive)	> 100 µM (inactive)	> 100 µM (inactive)	> 100 µM	> 100 µM (inactive)	> 100 µM (inactive)	> 100 µM (inactive)	> 100 µM (inactive)
O=C(O)CN1CCN2CCOCCOCCN(CC1)CCN(CC(=O)O)CC2	> 100 µM (inactive)	> 100 µM (inactive)	> 100 µM (inactive)	> 100 µM (inactive)	> 100 µM (inactive)	> 100 µM (inactive)	> 100 µM (inactive)	> 100 µM (inactive)	> 100 µM (inactive)	> 100 µM (inactive)	> 100 µM (inactive)	> 100 µM (inactive)	> 100 µM (inactive)	> 100 µM (inactive)		> 100 µM	> 100 µM (inactive)	> 100 µM (inactive)	> 100 µM (inactive)	
CCCCOCOc1ccccc1P1(=O)COc2ccccc2OC1	74.1 µM (inactive)	42.2 µM (inactive)	60.5 µM (inactive)	> 100 µM (inactive)	52.2 µM (inactive)	38.7 µM (inactive)	> 100 µM (inactive)	75 µM (inactive)		> 100 µM (inactive)		> 100 µM (inactive)	63 µM (inactive)	> 100 µM (inactive)		87.1 µM	> 100 µM (inactive)	> 100 µM (inactive)	67.3 µM (inactive)	37.8 µM (inactive)

Source: ChEMBL document CHEMBL1201862, “PubChem BioAssay data set” (2004)
